Results published in patent US20110183942A1, “Methods and Compositions for Treating Alzheimer's Disease” (UNIVERSITY OF MEDICINE AND DENTISTRY OF NEW JERSEY, priority 2008, published 2011).
Entries after “also recorded” stand apart in the source; their conditions may differ.

Columns and labels:
Type in all cases: cell-based, mouse
[1] = test system: surface AMPA receptor (GluR2/3, GluR1) in cultured neurons; experiment: Surface biotinylation assay of AMPA receptor subunits; details: DHPG 5 min
Description: For surface biotinylation, drug-treated cortical neurons were cooled on ice, washed twice with ice-cold PBS++ (1× PBS, 1 mM CaCl2, 0.5 mM MgCl2) and then incubated with PBS++ containing 1 mg/ml Sulfo-NHS-SSBiotin (Pierce) for 30 min at 4° C. Unreacted biotin was quenched by washing cells three times with PBS++ containing 100 mM Glycine (pH 7.4) (briefly once and for 5 min twice). Cultures were harvested in RIPA buffer and sonicated. Homogenates were centrifuged at […] for 20 min at 4° C. Fifteen % of supernatant was saved as the total protein. […] Precipitates were washed with RIPA buffer three times (5 min each time). All procedures were done at 4° C.

[2] = test system: Arc protein in DIV14 forebrain neurons; experiment: Western blot of Arc protein in cultured forebrain neurons
Description: For biochemistry experiments, 0.4×10^6 neurons were added to each well of a 6-well plate (Coming) coated with poly-L-lysine. Growth medium consisted of NeuroBasal (Invitrogen) supplemented with 1% fetal bovine serum (Hyclone), 2% B27, 1% Glutamax (Invitrogen), 100 U/mL penicillin, and 100 U/mL streptomycin (Invitrogen). Neurons were fed twice per week with glia conditioned growth medium.
Transfected HEK293T cells or cultured neurons were treated with various drugs and then harvested in IP buffer supplemented with 1% Triton X-100 buffer and Complete™ EDTA-Free protease inhibitors. Soluble fractions were diluted with 4× SDS sample buffer.
The membrane was blocked with TBST (50 mM Tris, pH 7.5, with 150 mM NaCl, and 0.1% Tween-20) containing 5% non-fat milk for one hour at room temperature, followed by incubation with primary antibody in TBST buffer overnight at 4° C. After three washes with TBST buffer, membranes were incubated with HRP-conjugated anti-rabbit, or anti-mouse antibody in TBST for another hour. After three washes with TBST buffer, the membrane was treated with SuperSignal ECL substrate (Pierce) according to the manufacturer's protocol.
To reduce the background signal in the co-IP assay, HRP-conjugated HA or HPR conjugated myc antibody (Santa Cruz) was used when overexpressed proteins were tagged with HA or myc. […] Image J software (NIH) was used for quantification.

[3] = test system: GluR1-containing AMPA receptors in primary hippocampal neurons; experiment: AMPA receptor trafficking (surface and internalized GluR1 labeling)
Description: (§1) Labeling of surface or internalized pool of AMPA receptor was performed as described with minor modifications (Shepherd, et al., Neuron, 52, 475-484 (2006)). Briefly, surface GluR1-containing AMPA receptors were then labeled by adding 2.5 μg of GluR1-N JH1816 pAb to the neuronal growth media and were subsequently incubated at 37° C. for 15 or 60 minutes after 5 min DHPG application. To visualize surface and internalized GluR1, Alexa 555 secondary was added in excess live at 10° C. Neurons were fixed, permeabilized and subsequently exposed to Alexa 488 secondary to stain internalized receptors (background in the non-permeabilized control was negligible).
as §1, with “DIV 14-21 mouse primary hippocampal cultures were incubated in neuronal growth media containing 50 μMDHPG for 5 minutes and then washed” for “Labeling of surface or internalized pool of AMPA receptor was performed as described”, “new growth media. Surface” for “minor modifications (Shepherd, et al., Neuron, 52, 475-484 (2006)). Briefly, surface”
Quantification of surface GluR1 puncta was carried out using Image J software. Images were acquired as multi-channel TIFF files with a dynamic range of 4096 gray levels (12-bit binary; MultiTrack acquisition for confocal) using metamorph software on a Zeiss LSM 510 confocal microscope. To measure punctate structures neurons were thresholded by gray value at a level close to 50% of the dynamic range. Background noise from these images was negligible. All puncta were treated as individual objects and the characteristics of each, such as area and average fluorescence, were logged measured. The Data reflected in FIGS. 1B-C was an example of one representative experiment. The total intensity of GluR1 levels were normalized to control, untreated neurons at 60 min. Significance was determined by a paired Student's t-test.

[4] = test system: Arc protein in DIV14 hippocampal neurons; experiment: Arc immunocytochemistry in cultured hippocampal neurons
Description: Immunocytochemistry of cultured neurons was performed as described (Shepherd et al., Neuron, 52, 475-484 (2006)). Briefly, DIV14 primary hippocampal neurons were fixed in fixation solution (4% paraformaldehyde, 4% sucrose containing 1× PBS) for 20 min at 4° C. and were permeabilized with 0.2% Triton X-100 in PBS for 10 min 4° C. Cells were then blocked for 1 hr at room temperature in 10% normal goat serum (NGS). Primary antibodies were diluted (1:250 of phospho-eEF2 antibody, 1:500 of PSD95, 1:300 for Arc) in 10% NGS and incubated with neurons for overnight at 4° C. Alexa 488, or Alexa 555-conjugated secondary antibodies (1:500; Molecular Probes) were diluted in 10% NGS and incubated at room temperature for 1 hr. Coverslips were mounted with PermaFluor containing DAPI (Invitrogen). All images were taken with same exposure and setting using Zeiss 510 Meta confocal microscope. Quantification of Arc levels was carried out using Image J software. For the measurement of dendritic Arc levels, average pixel intensity was measured in the primary dendrites 20 μm away from the soma.

- reduction of ratio of surface to total GluR2/3 ([1]; WT neurons): ~30%
- reduction of ratio of surface to total GluR2/3 ([1]; eEF2K KO neurons): did not significantly reduce
- internalized GluR1 ([3]; Arc KO neurons, after DHPG): did not exhibit changes
- surface GluR1 ([3]; Arc KO neurons, after DHPG): did not exhibit any changes
- internalized GluR1 ([3]; WT cultures, 15 min after 5 min DHPG): increase of internalized GluR1
- surface GluR1 ([3]; WT hippocampal cultures, 15 min and 60 min after 5 min DHPG): loss of surface GluR1
Compound: NC(C(=O)O)c1cc(O)cc(O)c1 (racemic) [DHPG, (R,S)-3,5-DHPG]
- rapid increase of Arc protein following DHPG stimulation ([2]; Fmr1 KO neurons): absent
- level of Arc protein after DHPG ([2]; WT neurons, DHPG 50 μM, 5 min): significantly increased the level of Arc; also recorded: induced
- increase in Arc protein 5 min after DHPG ([2]; eEF2K KO neurons): absent
- Arc immunoreactivity in dendrites ([4]; DHPG 50 μM 5 min, relative to untreated dendrites): 1.58±0.095
- Arc immunoreactivity in cell body ([4]; DHPG 50 μM 5 min, relative to untreated soma): 1.34±0.063
- level of Arc in soma or dendrites after DHPG ([4]; eEF2K KO hippocampal neurons): did not change the level of Arc
